Reference: ChEMBL document CHEMBL3861987, “Synthesis, antitumor evaluation and 3D-QSAR studies of [1,2,4]triazolo[4,3-b][1,2,4,5]tetrazine derivatives” (Bioorg Med Chem Lett, 2016)

Assays:
[1] = tested on: MCF-7 (Homo sapiens); assay: Antiproliferative activity against human MCF-7 cells after 72 hrs by MTT assay; settings: MCF-7, 72 h
[2] = Cytotoxicity against human MCF7 cells assessed as reduction in cell viability after 72 hrs by MTT assay; assay type: functional, cell-based; settings: MCF7, 72 h
[3] = Cytotoxicity against human Bewo cells assessed as reduction in cell viability after 72 hrs by MTT assay; assay type: functional, cell-based
[4] = Cytotoxicity against human HL60 cells assessed as reduction in cell viability after 72 hrs by MTT assay; assay type: functional, cell-based; settings: HL-60, 72 h
[5] = Solubility of compound in DMSO; assay type: physicochemical

SMILES	IC50 ([1]; read-out: pIC50 (converted)) [µM]	IC50 [2] [µM]	IC50 [3] [µM]	IC50 [4] [µM]	IC50 ([1]; read-out: IC50) [µM]	solubility [5]
Cc1cc(C)n(-c2nnc3nnc(-c4ccc([N+](=O)[O-])cc4)n3n2)n1	6.85	6.85	7.29	> 100		
OCCNc1nnc2nncn2n1	11.6				11.6	
CCCCCC(=O)N1CCN(c2nnc3nncn3n2)CC1	5.26				5.26	
c1ccc(-c2nnc3nnc(N4CCOCC4)nn23)cc1	8.87	8.87	5.65	30.4		
O=[N+]([O-])c1ccc(-c2nnc3nnc(N4CCOCC4)nn23)cc1		> 100	> 100	5.79		
Clc1ccccc1-c1nnc2nnc(N3CCOCC3)nn12	14.9	14.9	3.15	13.2		
CCc1nnc2nnc(-n3nc(C)cc3C)nn12	36.1	36	1.64	0.82		
O=C(Cc1ccccc1)N1CCN(c2nnc3nncn3n2)CC1	3.08				3.08	
O=C(c1ccccc1)N1CCN(c2nnc3nncn3n2)CC1	8.38				8.38	
Fc1ccc(-c2nnc3nnc(N4CCCCC4)nn23)cc1	41.4	41.4	3.34	30.7		
Cc1cc(C)n(-c2nnc3nnc(C(C)(C)C)n3n2)n1	17.6	17.6	0.73	0.73		
Cc1ccc(C(=O)N2CCN(c3nnc4nncn4n3)CC2)cc1	15.9				15.9	
Cc1cc(C)n(-c2nnc3nnc(-c4ccccc4)n3n2)n1	13.6	13.7	23.6	12.1		
CC(C)(C)C(=O)N1CCN(c2nnc3nncn3n2)CC1	5.51				5.51	
Cc1ccc(-c2nnc3nnc(-n4nc(C)cc4C)nn23)cc1	36.2	36.2	7.54	> 100		
CC(=O)N1CCN(c2nnc3nncn3n2)CC1	13.9				13.9	
O=C(C1CCCCC1)N1CCN(c2nnc3nncn3n2)CC1	1.26				1.26	
O=C(c1ccc(Cl)cc1)N1CCN(c2nnc3nncn3n2)CC1	12.9				12.8	
Nc1nnc2nncn2n1	46.5				46.5	
Cc1cc(C)n(-c2nnc3nnc(C)n3n2)n1	17.8	17.8	2.61	0.43		
Fc1ccc(-c2nnc3nnc(N4CCOCC4)nn23)cc1	32.9	32.9	4.65	28.9		
Cc1cc(C)n(-c2nnc3nnc(-c4ccccc4Cl)n3n2)n1	19.5	19.5	3.21	73.6		
Fc1ccc(-c2nnc3nnc(N4CCCC4)nn23)cc1		> 100	> 100	4.56		Insoluble
Cc1cc(C)n(-c2nnc3nnc(C4CCCCC4)n3n2)n1	12.8	12.8	6.7	0.67		
CN1CCN(c2nnc3nncn3n2)CC1	21.6				21.6	
CCc1nnc2nnc(N3CCCC3)nn12	47	47	5.02	47		
CCCCCc1nnc2nnc(-n3nc(C)cc3C)nn12	22	22	2.79	1.05		
Cc1nnc2nnc(N3CCOCC3)nn12	38.9	38.9	5.88	4.52		
CCCCC(=O)N1CCN(c2nnc3nncn3n2)CC1	2.75				2.76	
